Experimental data from publication PMC10877290 (Heliyon, 2024).
“Also recorded” adds a separate entry of the source.

Key:
Assay type in all cases: biochemical
[1] = biological target: human lysosomal acid-α-glucosidase (Homo sapiens, UniProt P10253); assay: α-Glucosidase inhibition assay
[2] = biological target: T1, human pancreatic α-amylase (Homo sapiens, UniProt P04746); assay: α-Amylase inhibition assay
T1 sequence (P04746 16-511): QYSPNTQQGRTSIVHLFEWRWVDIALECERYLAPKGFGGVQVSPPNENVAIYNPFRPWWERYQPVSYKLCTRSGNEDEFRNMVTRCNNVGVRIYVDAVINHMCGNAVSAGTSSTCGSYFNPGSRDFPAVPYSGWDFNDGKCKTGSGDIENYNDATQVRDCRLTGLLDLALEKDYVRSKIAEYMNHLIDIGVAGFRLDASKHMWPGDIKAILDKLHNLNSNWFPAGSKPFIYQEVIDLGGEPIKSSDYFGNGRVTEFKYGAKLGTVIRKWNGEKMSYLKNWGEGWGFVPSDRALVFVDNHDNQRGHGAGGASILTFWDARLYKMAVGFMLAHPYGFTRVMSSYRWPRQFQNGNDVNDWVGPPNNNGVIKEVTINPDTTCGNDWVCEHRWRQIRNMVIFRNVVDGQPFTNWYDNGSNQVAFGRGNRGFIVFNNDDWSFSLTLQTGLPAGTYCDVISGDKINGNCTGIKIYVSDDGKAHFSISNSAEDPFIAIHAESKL

[3] = biological target: T2, α-amylase (Homo sapiens, UniProt P04746); assay: Enzyme kinetic study, α-amylase; conditions: for Inhibition mode towards α-amylase: Lineweaver-Burk plot
T2 sequence (P04746 16-511): T1 sequence (P04746 16-511)

[4] = biological target: α-glucosidase (Homo sapiens, UniProt P10253); assay: Enzyme kinetic study, α-glucosidase; conditions: for Inhibition mode towards α-glucosidase: Lineweaver-Burk plot

SMILES	IC50 [1] [µM]	IC50 [2] [µM]	other results
COc1cc(C[C@@H]2C[C@H]3C(=O)N(C)[C@@]4(C[C@H](C)CC[C@H]4C(C)C)N3O2)ccc1OCC(=O)N/N=C1\C(=O)Nc2ccc(F)cc21 [5b, N'-((Z)-5-fluoro-2-oxoindolin-3-ylidene)-2-(4-(((1S,2S,2′R,3a′S,5R)-2-isopropyl-5,5′-dimethyl-4′-oxotetrahydro-2′H-spiro[cyclohexane-1,6′-imidazo [1,5-b]isoxazol]-2′-yl)methyl)-2-methoxyphenoxy)acetohydrazide]		174 ± 8.71	
COc1cc(C[C@@H]2C[C@H]3C(=O)N(C)[C@@]4(C[C@H](C)CC[C@H]4C(C)C)N3O2)ccc1OCC(=O)N/N=C1\C(=O)Nc2c(Cl)cccc21 [5a, N'-((Z)-7-chloro-2-oxoindolin-3-ylidene)-2-(4-(((1S,2S,2′R,3a′S,5R)-2-isopropyl-5,5′-dimethyl-4′-oxotetrahydro-2′H-spiro[cyclohexane-1,6′-imidazo [1,5-b]isoxazol]-2′-yl)methyl)-2-methoxyphenoxy)acetohydrazide]	209 ± 10.4	194 ± 9.54	Factor by which α-glucosidase activity is impaired relative to 5d ([1]; 5a versus 5d): 3.2; Factor by which α-amylase activity is impaired relative to 5d ([2]; 5a versus 5d): 6.3
Cc1ccc2c(c1)/C(=N/NC(=O)COc1c(C)cccc1C[C@@H]1C[C@H]3C(=O)N(C)[C@@]4(C[C@H](C)CC[C@H]4C(C)C)N3O1)C(=O)N2 [5g, 2-(2-(((1S,2S,2′R,3a′S,5R)-2-isopropyl-5,5′-dimethyl-4′-oxotetrahydro-2′H-spiro[cyclohexane-1,6′-imidazo [1,5-b]isoxazol]-2′-yl)methyl)-6-methylphenoxy)-N'-((Z)-5-methyl-2-oxoindolin-3-ylidene)acetohydrazide]		135 ± 6.73	
C[C@H]1O[C@H](O[C@H]2[C@H](O)[C@@H](O)[C@@H](O[C@H]3[C@H](O)[C@@H](O)C(O)O[C@@H]3CO)O[C@@H]2CO)[C@H](O)[C@@H](O)[C@@H]1N[C@H]1C=C(CO)[C@@H](O)[C@H](O)[C@H]1O (stereo partly shown) [Acarbose, reference compound]			Inhibition mode towards α-amylase [3]: competitive inhibition; also recorded: competitive inhibitors; Inhibition mode towards α-glucosidase [4]: competitive inhibitors; also recorded: compete with the substrate
Cc1cccc(C[C@@H]2C[C@H]3C(=O)N(C)[C@@]4(C[C@H](C)CC[C@H]4C(C)C)N3O2)c1OCC(=O)N/N=C1\C(=O)Nc2cc(Br)ccc21 [5e, N'-((Z)-6-bromo-2-oxoindolin-3-ylidene)-2-(2-(((1S,2S,2′R,3a′S,5R)-2-isopropyl-5,5′-dimethyl-4′-oxotetrahydro-2′H-spiro[cyclohexane-1,6′-imidazo [1,5-b]isoxazol]-2′-yl)methyl)-6-methylphenoxy)acetohydrazide]	172 ± 8.44	92.4 ± 4.05	

Now from value to molecule, other results behind:

IC50 [1] [µM]	IC50 [2] [µM]	SMILES	other results
107 ± 5.31	55.7 ± 2.78	Cc1cccc(C[C@@H]2C[C@H]3C(=O)N(C)[C@@]4(C[C@H](C)CC[C@H]4C(C)C)N3O2)c1OCC(=O)N/N=C1\C(=O)Nc2ccc(F)cc21 [5f, N'-((Z)-5-fluoro-2-oxoindolin-3-ylidene)-2-(2-(((1S,2S,2′R,3a′S,5R)-2-isopropyl-5,5′-dimethyl-4′-oxotetrahydro-2′H-spiro[cyclohexane-1,6′-imidazo [1,5-b]isoxazol]-2′-yl)methyl)-6-methylphenoxy)acetohydrazide]	
85.2 ± 4.25	46.6 ± 2.3	Cc1cccc(C[C@@H]2C[C@H]3C(=O)N(C)[C@@]4(C[C@H](C)CC[C@H]4C(C)C)N3O2)c1OCC(=O)N/N=C1\C(=O)Nc2c(F)cccc21 [5h, N'-((Z)-7-fluoro-2-oxoindolin-3-ylidene)-2-(2-(((1S,2S,2′R,3a′S,5R)-2-isopropyl-5,5′-dimethyl-4′-oxotetrahydro-2′H-spiro[cyclohexane-1,6′-imidazo [1,5-b]isoxazol]-2′-yl)methyl)-6-methylphenoxy)acetohydrazide]	
65.1 ± 3.11	30.4 ± 1.52	Cc1cccc(C[C@@H]2C[C@H]3C(=O)N(C)[C@@]4(C[C@H](C)CC[C@H]4C(C)C)N3O2)c1OCC(=O)N/N=C1\C(=O)Nc2c(Cl)cccc21 [5d, N'-((Z)-7-chloro-2-oxoindolin-3-ylidene)-2-(2-(((1S,2S,2′R,3a′S,5R)-2-isopropyl-5,5′-dimethyl-4′-oxotetrahydro-2′H-spiro[cyclohexane-1,6′-imidazo [1,5-b]isoxazol]-2′-yl)methyl)-6-methylphenoxy)acetohydrazide]	Ki [3]: 27.5 µM; Inhibition mode towards α-amylase [3]: competitive inhibition; also recorded: competitive inhibitors; Ki [4]: 56.1 µM; Inhibition mode towards α-glucosidase [4]: competitive inhibitors; also recorded: compete with the substrate
152 ± 7.56	68 ± 3.4	COc1cc(C[C@@H]2C[C@H]3C(=O)N(C)[C@@]4(C[C@H](C)CC[C@H]4C(C)C)N3O2)ccc1OCC(=O)N/N=C1\C(=O)Nc2cc(Br)ccc21 [5c, N'-((Z)-6-bromo-2-oxoindolin-3-ylidene)-2-(4-(((1S,2S,2′R,3a′S,5R)-2-isopropyl-5,5′-dimethyl-4′-oxotetrahydro-2′H-spiro[cyclohexane-1,6′-imidazo [1,5-b]isoxazol]-2′-yl)methyl)-2-methoxyphenoxy)acetohydrazide]	
